Data: paper PMC7179302, “Lead Optimization of Dehydroemetine for Repositioned Use in Malaria” (Antimicrobial Agents and Chemotherapy, 2020)
Structures can show the parent of a compound that is named as a salt.

Legend:
[1] = tested on: P. falciparum strain 3D7A; assay: 3H-hypoxanthine incorporation assay, strain 3D7A; type: cell-based; details: Plasmodium falciparum, read-out: IC50 (μM) 3D7A
Description: (§1) The cross-resistance assay used relies on the parasites’ incorporation of labeled 3H-hypoxanthine, which is proportional to P. falciparum growth. In vitro cross-resistance of the compounds is measured as the ratio between the IC50 for the tested P. falciparum strain and the IC50 for strain 3D7A. Every replicate from a multidrug-resistant (MDR) strain involved a simultaneous determination using a 3D7A replicate to avoid any artifact linked to experimental conditions.
(§2) The three strains used for the cross-resistance assay were 3D7A, Dd2, and W2, based on their resistance profiles; the assay was carried out by GSK, Tres Cantos. Strain 3D7A is chloroquine sensitive, strain Dd2 is resistant to chloroquine, mefloquine, and pyrimethamine ([57]), and strain W2 is resistant to chloroquine, quinine, pyrimethamine, cycloguanil, and sulfadoxine (from the Malaria Research and Reference Reagent Resource Center [MR4]) ([58]). A culture of red blood cells (RBCs) parasitized by the corresponding strain (0.5% parasitemia, 2% hematocrit) in RPMI 1640, […], and 5 μM hypoxanthine was exposed to 9 dilutions (3-fold serial dilutions) of the compound starting at 5 μM. One hundred microliters of culture volume was plated in 96-well flat-bottom microtiter plates with 0.5 μl drug (200× stock in DMSO). Plates were incubated for 24 h at 37°C, 5% CO2, 5% O2, 90% N2. Next, 3H-hypoxanthine was added and plates were incubated for another 24-h period. After that, parasites were harvested on a glass fiber filter using a TomTec cell harvester 96. Filters were dried, and melt-on scintillator sheets were used to determine the incorporation of 3H-hypoxanthine. Radioactivity was measured using a MicroBeta counter. […] IC50 values were determined using the Grafit 7 program ([41]).

[2] = tested on: P. falciparum strain Dd2; assay: microbe, parasite or virus in culture; type: cell-based; details: Plasmodium falciparum, DD2, read-out: IC50 (μM) Dd2
Description: as §1, §2

[3] = tested on: P. falciparum strain W2; assay: microbe, parasite or virus in culture; type: cell-based; details: Plasmodium falciparum, W2, read-out: IC50 (μM) W2
Description: as §1, §2

[4] = tested on: mitochondrial membrane potential of P. falciparum strain K1 trophozoites; assay: Rhodamine 123 staining for mitochondrial membrane potential, flow cytometry; type: cell-based, Plasmodium falciparum; details: deviation from infected blood without drugs
Description: Changes in mitochondrial membrane potential were measured using rhodamine 123 (excitation wavelength, 511 nm; emission wavelength, 534 nm), a membrane-permeating cationic fluorescent dye ([49]), which accumulates by electrostatic attraction in the mitochondria because of its negative transmembrane potential. A change in the dye’s concentration in the mitochondria is caused by a depolarization event and can be visualized as a shift in the fluorescence intensity of rhodamine 123 ([50]). Draq5 (excitation wavelength, 647 nm; emission wavelength, >665 nm) is a far-red fluorescent DNA dye which is cell permeating and was used to distinguish the parasites in flow cytometry in the allophycocyanin (APC)-Cy7-A channel. SYBR green was not preferred for this experiment as it emits in the same channel as rhodamine 123 and would result in the overlap of emission signals. Fluorescence microscopy was used to visualize the localization of rhodamine 123 within the cytoplasm of the parasites (Fig. 9).
A decrease in fluorescence intensity measured in the fluorescein isothiocyanate (FITC)-A channel indicates a loss of mitochondrial membrane potential. Atovaquone, a known mitochondrial inhibitor, was used as a control.
Compounds were then washed away by centrifuging the cultures, and a pellet was prepared for each drug concentration. Pellets were then incubated with 1 ml of 200 nM rhodamine 123 for 1 h, followed by a further incubation with 100 μl of 5 μM Draq5 for 20 min. After a wash with PBS, the experiment was read with a flow cytometer on the FITC channel. Loss of mitochondrial membrane potential was indicated by a decrease in fluorescence intensity.

Row | Structure (SMILES) | IC50 [1] [µM] | IC50 [2] [µM] | IC50 [3] [µM] | Change in fluorescence intensity (FITC-A mean) of rhodamine 123 ([4]; at 10× IC50, 2 h) [%] | Change in fluorescence intensity (FITC-A mean) of rhodamine 123 ([4]; at IC50, 2 h) [%]
1 | CCC1=C(C[C@H]2NCCc3cc(OC)c(OC)cc32)C[C@H]2c3cc(OC)c(OC)cc3CCN2C1 [(−)-R,S-dehydroemetine, (S)-2-((R)-6,7-dimethoxy-1,2,3,4-tetrahydro-isoquinolin-1-ylmethyl)-3-ethyl-9,10-dimethoxy-1,6,7,11b-tetrahydro-4H-pyrido[2,1-a]isoquinoline * dihydrobromide] | 0.146 | 0.177 | 0.168 | 32.98 | 26.76
2 | CCC1=C(C[C@@H]2NCCc3cc(OC)c(OC)cc32)C[C@H]2c3cc(OC)c(OC)cc3CCN2C1 [(−)-S,S-dehydroisoemetine, (S)-2-((S)-6,7-dimethoxy-1,2,3,4-tetrahydro-isoquinolin-1-ylmethyl)-3-ethyl-9,10-dimethoxy-1,6,7,11b-tetrahydro-4H-pyrido[2,1-a]isoquinoline * dihydrobromide] | 1.03 |  |  |  | 
